Columns and labels:
[1] = Terminal half life in B6 mouse at 25 mg/kg, po by UV-HPLC analysis; format: ADME, organism-based; settings: in vivo; for half-life: B6, mouse, read-out: beta t1/2 (converted)
Mus musculus = test: (§1) Cmax in B6 mouse at 25 mg/kg, po by UV-HPLC analysis; format: ADME, organism-based; set-up: dose 25 mg/kg, route oral; settings: mouse, in vivo, BLD = below limit of detection
Rattus norvegicus = test: Antivascular activity in rat model of retinopathy assessed as vessel regression in retina at 5 mg/ml, administered intravitreally on postnatal day 8 measured after 6 days by ADPase-staining based histochemical analysis; format: functional
[2] = Terminal half life in B6 mouse at 25 mg/kg, po administered in 0.5% CMC by UV-HPLC analysis; format: ADME, organism-based; settings: in vivo, read-out: beta t1/2 (converted)
[3] = Terminal half life in B6 mouse at 25 mg/kg, ip by UV-HPLC analysis; format: ADME, organism-based; settings: in vivo, read-out: beta t1/2 (converted)
[4] = Cmax in B6 mouse at 10 mg/kg, po by UV-HPLC analysis; format: ADME, organism-based; set-up: dose 10 mg/kg, route oral; settings: in vivo
[5] = AUClast in B6 mouse at 10 mg/kg, po by UV-HPLC analysis; format: ADME, organism-based; set-up: dose 10 mg/kg, route oral, time 0 - last; settings: in vivo
[6] = Terminal half life in B6 mouse at 8 mg/kg, po by UV-HPLC analysis; format: ADME, organism-based; settings: in vivo, read-out: beta t1/2 (converted)
[7] = Cmin in B6 mouse at 40 mg/kg, po measured after 7 hrs by UV-HPLC analysis; format: ADME, organism-based; settings: in vivo, read-out: Cmin
[8] = Terminal half life in B6 mouse at 10 mg/kg, po by UV-HPLC analysis; format: ADME, organism-based; settings: in vivo, read-out: beta t1/2 (converted)
[9] = Terminal half life in B6 mouse at 40 mg/kg, po by UV-HPLC analysis; format: ADME, organism-based; settings: in vivo, read-out: beta t1/2 (converted)
[10] = Cmin in B6 mouse at 8 mg/kg, po measured after 7 hrs by UV-HPLC analysis; format: ADME, organism-based; settings: in vivo, read-out: Cmin
[11] = Cmax in B6 mouse at 50 mg/kg, po by UV-HPLC analysis; format: ADME, organism-based; set-up: dose 50 mg/kg, route oral; settings: in vivo
[12] = Terminal half life in B6 mouse at 200 mg/kg, po by UV-HPLC analysis; format: ADME, organism-based; settings: in vivo, read-out: beta t1/2 (converted)
[13] = AUClast in B6 mouse at 200 mg/kg, po by UV-HPLC analysis; format: ADME, organism-based; set-up: dose 200 mg/kg, time 0 - last, route oral; settings: in vivo
[14] = Cmin in B6 mouse at 200 mg/kg, po measured after 7 hrs by UV-HPLC analysis; format: ADME, organism-based; settings: in vivo, read-out: Cmin
[15] = as §1; format: ADME, organism-based; set-up: dose 25 mg/kg, route oral; settings: B6, mouse, in vivo
[16] = AUClast in B6 mouse at 25 mg/kg, po by UV-HPLC analysis; format: ADME, organism-based; set-up: dose 25 mg/kg, time 0 - last, route oral; settings: in vivo

## O=C(NCc1cccc(F)c1)c1ccccc1Sc1ccc2c(/C=C/c3ccccn3)n[nH]c2c1
[1]; mouse, BLD = below limit of detection
  beta t1/2: Bld
Mus musculus
  Cmax: Bld

## CCONC(=O)c1ccccc1Sc1ccc2c(/C=C/c3ccccn3)n[nH]c2c1
Rattus norvegicus
  Activity: >=25 - 75%
[1]
  half-life: 2 h
[2]
  half-life: 2 h
[3]
  half-life: 4.1 h

## CCn1nc(C)cc1C(=O)Nc1cccc(C(=O)c2ccc3c(/C=C/c4ccccn4)n[nH]c3c2)c1.Cl
[4]
  Cmax: 12 ng/mL
[5]
  AUC(0-t): 0.061 µg·h/mL
[6]
  half-life: 1.5 h
[7]
  concentration at 7 h: 1880 ng/mL
[8]
  half-life: 3.1 h
[1]
  half-life: 1.6 h
[9]
  half-life: 2.4 h
[10]
  concentration at 7 h: 122 ng/mL

## O=C(Nc1cccc(Oc2ccc3c(/C=C/c4ccccc4)n[nH]c3c2)c1)c1ccccc1
[11]
  Cmax: 198 ng/mL

## Cc1cc(C(=O)Nc2cccc(C(=O)c3ccc4c(/C=C/c5ccccn5)n[nH]c4c3)c2)n(C)n1.Cl
[12]
  half-life: 9.4 h
[13]
  AUC(0-t): 156 µg·h/mL
[14]
  concentration at 7 h: 12100 ng/mL

## Cc1cc(C(=O)Nc2cc(Nc3ccc4c(/C=C/c5ccccn5)n[nH]c4c3)ccc2F)n(C)n1.Cl
[7]
  concentration at 7 h: 4140 ng/mL
[10]
  concentration at 7 h: 1900 ng/mL
[15]
  Cmax: 50000 ng/mL
[16]
  AUC(0-t): 327 µg·h/mL
[14]
  concentration at 7 h: 12700 ng/mL

Source: ChEMBL document CHEMBL3880421, “Indazole compounds and pharmaceutical compositions for inhibiting protein kinases, and methods for their use” (2003)
